According to paper PMC11477482 (Molecules, 2024):
“Also recorded” adds a separate entry of the source.

How the values were obtained:
[1] = DSC thermal analysis and compatibility with excipients; assay type: physicochemical; conditions: for compatibility with Carbopol 980 (CP) / compatibility with hydroxyethylcellulose (HEC) / compatibility with miglyol 812 (MIG) / compatibility with stearyl alcohol (SA) / compatibility with tocopherol (TP) / compatibility with EDTA: 1:1 (w/w) mixture; for Tonset / Tpeak / ΔH: compound alone, 10 °C/min, nitrogen
Description: A differential scanning calorimeter (DSC) 200F3 Maia (Netzsh-Gerätebau GmbH, Selb, Germany) was used for thermal analysis of the ingredients and mixtures. Typical excipients of topical formulations with different functions were selected for this study. The physical mixtures between compounds and the excipients were prepared in a ratio of 1:1 (w/w). Individual samples and the physical mixtures were weighed directly in the pierced DSC aluminum pan and scanned in the temperature range of 20–400 °C under nitrogen atmosphere with flow of 40 mL/min, with a heating rate of 10 °C/min. An empty aluminum pan was used as reference. The onset temperature and melting enthalpy (ΔH) were calculated using Proteus Analysis software (Version 6.1, NETZSCH-Gerätebau GmbH, Germany). The DSC cell was calibrated (sensitivity and temperature calibration) with Hg (m.p. −38.8 °C), In (m.p. 156.6 °C), Sn (m.p. 231.9 °C), Bi (m.p. 271.4 °C), Zn (m.p. 419.5 °C), and CsCl (m.p. 476.0 °C) as standards.

[2] = Photostability under UVA + UVB radiation; assay type: physicochemical; conditions: for variation in absorbance after irradiation: UVA + UVB, up to 15 min
Description: Three independent compound solutions (100 µM) were prepared and exposed to light. A volume of 50 mL of each sample replicate was exposed side-by-side under a UV lamp at a […] distance through an appropriate duration of time. These conditions were monitored using calibrated radiometers. The lamp used as light source for the photostability assay emitted an irradiance of 0.62 mW/cm^2 and 0.74 mW/cm^2 of UVA and UVB light, respectively. A UV lamp (Osram, Ultra-Vitalux, 300 W) was positioned at a height of 54 cm. The UV lamp was turned on 1 h before the experiment, and the UVA and UVB irradiances were measured, maintaining the controlled temperature. At the end of the exposure period, the absorbance spectrum was measured between 200 nm and 800 nm using a UV–vis spectrophotometer. The exposed samples were analyzed concomitantly with protected samples (dark controls). Photostability was evaluated by comparing the UV–vis spectra at each evaluation time for each antioxidant.

[3] = Stability in metal solutions, pH 5 (UV-vis absorbance); assay type: physicochemical
Description: Five independent metal solutions (100 µM) were prepared in a buffer at pH 5, in triplicate. To the compound solutions, a volume of metal solutions was added to a final proportion of 1:1. The stability in the presence of different metals was analyzed at specific time points. The solutions were stored at room temperature in the dark. Aliquots of 3.00 mL were transferred to quartz cuvettes at specific time points to measure their absorbance using UV–vis spectrophotometry. Solutions of each metal were used as blanks.

[4] = Stability at different pH values (UV-vis absorbance); assay type: physicochemical; conditions: for pH stability: 100 µM buffered solutions, pH 2 to 8
Description: Buffer solutions with pH values between 2 and 8 were prepared and their pH was measured. The buffer solutions were prepared according to Portuguese Pharmacopeia 11.0 specifications. Each compound solution (100 µM) buffered at a specific pH was prepared in triplicate. The solutions were stored at room temperature and protected from light. Aliquots of 3.00 mL were transferred to quartz cuvettes at specific time points, and their absorbance was measured by ultraviolet/visible (UV–vis) spectrophotometry. The blank for each pH corresponded to 3.00 mL of the respective buffer.

[5] = tested on: NO production in LPS-stimulated RAW 264.7 macrophages; test: NO production in LPS-stimulated macrophages (Griess assay); assay type: cell-based, mouse; conditions: LPS 100 ng/mL, 24 h
Description: The human keratinocytes (HaCaT, CLS 300493, Eppelheim, Germany) cell line was cultured with Dulbecco’s Modified Eagle’s Medium (DMEM) (Sigma-Aldrich, St. Louis, MO, USA), supplemented with 10% (v/v) of heat-inactivated fetal bovine serum (FBS), 1% (v/v) antibiotic solution (from a 10,000 U/mL penicillin and 10,000 μg/mL streptomycin stock) (Gibco, Carlsbad, CA, USA), 3.7 g/L sodium bicarbonate, and 1 mM sodium pyruvate (Sigma-Aldrich, St. Louis, MO, USA). The cell culture of keratinocytes was detached with EDTA solution 1X (Sigma-Aldrich, St. Louis, MO, USA) when the cells reached 70–80% confluence in cell culture flasks. The mouse macrophage cell line (RAW 264.7, ATCC TIB-71, Manassas, VA, USA) was cultured in DMEM supplemented with 10% (v/v) non-inactivated FBS, 1% (v/v) antibiotic solution, 1.5 g/L sodium bicarbonate, and 1 mM sodium pyruvate. Macrophages were mechanically detached with a cell scraper and subcultured in (1:10) proportion of cellular suspension to a final volume of DMEM. The human monocytic cell line THP-1 (ATCC® TIB-202™, American Type Culture Collection, Manassas, VA, USA) was cultivated in RPMI 1640 supplemented with 10% inactivated FBS, 25 mM (D)-glucose, 10 mM HEPES, 1 mM sodium pyruvate, 100 U/mL penicillin, and 100 μg/mL streptomycin, and maintained at a cell density of 0.4 × 10^6 cells/mL. Cells were subcultured every 2 or 3 days and maintained in culture for 2–3 months, according to ATCC® instructions. Nitric oxide (NO) production was measured by quantifying the accumulation of nitrites in culture supernatants using the Griess assay. […] After a 30 min incubation period at room temperature, protected from light, the absorbance was read at 550 nm using a microplate spectrophotometer. The concentration of nitrites present in the supernatants was determined by interpolation of the absorbance of each sample in a sodium nitrite standard curve. The results of four independent experiments, in duplicate, were expressed as the percentage of NO production by cells versus the concentration of the chemicals compared with LPS (100%).

Row | compatibility with Carbopol 980 (CP) [1] | compatibility with miglyol 812 (MIG) [1] | compatibility with stearyl alcohol (SA) [1] | compatibility with tocopherol (TP) [1] | Tonset [1] | Tpeak [1] | ΔH [1] | variation in absorbance after irradiation [2] | loss of absorbance ([3]; pH 5, Ca(II), Cu(II), and Fe(III), after one day) | compatibility with EDTA [1] | increase of absorbance (hyperchromic effect) ([2]; after 5 min of UV exposure (UVA + UVB)) | loss of absorbance ([3]; pH 5, Cu(II), Fe(II), and Fe(III)) | variations in absorbance ([4]; acidic and neutral pH, 100 µM aqueous buffer) | loss of absorbance ([3]; pH 5, Fe(III) and Cu(II), at the end of 1 d) | SMILES | compatibility with hydroxyethylcellulose (HEC) [1] | pH stability [4] | effect on NO production [5] | reduction of NO production ([5]; relative to LPS = 100%)
1 | Weak interferences | more compatible | Weak interferences | more compatible | 195.0 °C | 200.5 °C | 223.1 J/g | practically imperceptible | > 50% | – | – | – | – | – | O=C1OC(C(COS(=O)(=O)O)OS(=O)(=O)O)C(OS(=O)(=O)O)=C1OC1OC(COS(=O)(=O)O)C(OS(=O)(=O)O)C(OS(=O)(=O)O)C1OS(=O)(=O)O [AAGS, 2-O-α-D-glucopyranosyl-L-ascorbic acid persulfate] | more compatible; also recorded: favorable compatibility | improved stability covering a larger range of pH values (pH = 2–6) | – | –
2 | Weak interferences | – | – | – | 192.9 °C | 197.1 °C | -328.6 J/g | – | – | Weak interferences | ~50% | > 80% | > 90% | – | O=C1O[C@H]([C@@H](O)CO)C(O)=C1O [AA, Ascorbic acid] | – | unstable at acidic and neutral pH | inhibited NO production | 30%
3 | – | more compatible | Weak interferences | more compatible | 173.0 °C | 176.4 °C | -139.8 J/g | slight variation in the absorbance | – | more compatible | – | – | – | < 30% | O=C1O[C@H]([C@@H](O)CO)C(O)=C1O[C@H]1O[C@H](CO)[C@@H](O)[C@H](O)[C@H]1O [AAG, 2-O-α-D-glucopyranosyl-L-ascorbic acid] | Weak interferences | – | inhibited NO production | –
